{
  "source": "paper PMC12022103",
  "about": "(Scientific Reports, 2025)",
  "key": {"[1]": {"tested_on": "E. coli ATCC 25922", "test": "Minimum inhibitory concentration (MIC), broth dilution", "format": "cell-based, Escherichia coli", "conditions": "D-form versus all-L parent", "procedure": "(§1) The panel of bacterial reference strains used in this work for assessment of synthetic peptide activity originated from the American Type Culture Collection (ATCC) and was obtained from the Diagnostic section at the Department of Microbiology, Oslo University Hospital. The strains used were as follows: E. coli ATCC 25922, K. pneumoniae ATCC 13883, A. baumannii ATCC 17978, S. aureus ATCC 29213, and E. faecalis ATCC 29212.\n(§2) Bacterial strains were plated on cation-adjusted Mueller-Hinton (MH II) agar plates and incubated at 37 °C overnight. The day after single colonies were picked and resuspended in sterile-filtered saline (0.9%). The OD of each bacterial suspension was adjusted to McFarland standard 0.5 using a spectrophotometer (UV-1800, Shimadzu), and the suspension further diluted 1:100 in MH II broth, corresponding to 10^6 colony forming units (CFU) per mL. The inoculum suspension was used for MIC, MBC, time-kill and protease stability assessments as described below. To ensure correct inoculum sizes, 10 µL of the bacterial suspensions were diluted 2000-fold in sterile-filtered saline (0.9%) and 100 µL plated onto MH II agar plates. After overnight incubation at 37 °C, colonies were counted. If found to be outside the acceptable number (20–80 colonies per plate corresponding to ∼10^6 CFU/mL), results from further analyses were discarded.\n(§3) The peptides were serially diluted (two-fold) directly in 96-well plates (Greiner, MICROPLATE, 96 WELL, PP, U-BOTTOM, NATURAL, 650261) containing MH II broth, corresponding to concentrations in the range 256–0.5 µM. An equal volume of bacterial suspension was added to each well, resulting in a final inoculum of 5 × 10^5 CFU/mL and final peptide concentrations of 128–0.25 µM. The 96-well plates were incubated for 18–24 h at 37 °C, after which the OD of each well was measured at 600 nm in a plate reader (Victor Nivo, Perkin-Elmer). The minimum inhibitory concentration (MIC) was estimated as the lowest concentration of peptide that produced OD600 measurements similar to the control wells containing no bacteria. The experiments were performed in triplicate. Two-fold variations in MIC values were often observed between replicates."}, "[2]": {"tested_on": "E. faecalis ATCC 29212", "test": "Minimum inhibitory concentration (MIC), broth dilution", "format": "cell-based", "conditions": "D-form versus all-L parent", "procedure": "as §1, §2, §3"}, "[3]": {"tested_on": "K. pneumoniae ATCC 13883", "test": "Minimum inhibitory concentration (MIC), broth dilution", "format": "cell-based", "conditions": "D-form versus all-L parent", "procedure": "as §1, §2, §3"}, "[4]": {"tested_on": "S. aureus ATCC 29213", "test": "Minimum inhibitory concentration (MIC), broth dilution", "format": "cell-based", "conditions": "D-form versus all-L parent", "procedure": "as §1, §2, §3"}, "[5]": {"tested_on": "E. coli ATCC 25922", "test": "Frequency of resistance determination (p0 method)", "format": "cell-based, Escherichia coli", "conditions": "E. coli ATCC 25922, 40 cultures, 4 × MIC, 24–48 h, colistin as reference, triplicate", "excerpt": "The method was based on the Fluctuation assay (p0 method; Luria and Delbrück) for determination of mutation rate[33],[34], and optimized for selection of mutants in liquid medium. Colistin sulfate (Thermo Scientific, 15575146) served as control in experimentation. Initially, the MIC of colistin and peptides was verified through broth dilution in 96-well plates (as detailed above). In order to account for potential phenotypic heterogeneity among colonies derived from the same frozen stock, multiple colonies of E. coli ATCC 25922 were picked and inoculated in 2 mL MHII broth overnight at 37°C with continuous shaking. The following day, aliquots of colistin and peptide solutions were prepared in MHII broth at working concentrations 20 times the MIC. […] The plates were incubated at 37 °C in a humidified box, and OD was measured at 600 nm using a microplate reader (Victor Nivo, Perkin-Elmer) after 0, 24 and 48 h of incubation. […]\nTo calculate the viable bacterial counts, the overnight culture was serially diluted 10-fold in MHII, after which 5 µl of the 10^− 3 – 10^− 9 dilutions were spotted onto MHII agar plates and incubated overnight at 37 °C. CFUs were counted the following day to determine CFU/mL of the overnight culture. […] The mutation rate, or frequency of resistance, was calculated using the following formula: […]"}, "[6]": {"tested_on": "E. coli", "test": "Cell morphology by phase contrast microscopy", "format": "cell-based, Escherichia coli", "conditions": "10× MIC, 5 min exposure, preliminary", "procedure": "To explore the potential correlation between general membrane destabilization and our FoR data, we conducted a brief preliminary examination of E. coli cell morphology following a pulsed exposure to our top four peptide candidates at 10× MIC. Cells were imaged by using phase contrast microscopy after 5 min of exposure. […] However, additional research using complementary techniques are necessary to conclusively characterize their killing mechanism."}, "[7]": {"test": "Solubility of peptides", "format": "physicochemical", "conditions": "solvent as stated in the value"}, "[8]": {"tested_on": "E. coli ATCC 25922", "test": "Time-kill experiments", "format": "cell-based, Escherichia coli", "conditions": "E. coli ATCC 25922, at the MBC; detection limit 100 CFU/mL; triplicate", "procedure": "as §2\nFour Eppendorf tubes were set up containing 0.5 mL of E. coli inoculum, prepared as described above. To the tubes were added peptides corresponding to final concentrations of ½×MIC, MIC and 2×MIC (see Fig. 3). One tube served as growth control (no added peptide). Then, 50 µL of culture were sampled from the tubes at timepoints 0, 0.25, 0.5, 2, 5 and 24 h. […] The day after, CFU/mL was calculated based on colony counts and dilution factor. […]"}},
  "note": "Non-standard residues stand in square brackets, D forms with d. Residues, ends and D or L forms follow the SMILES beside them. No end group written: not given here.",
  "data": [
    {"compound": "CC[C@@H](C)[C@@H](NC(=O)[C@@H](CC(C)C)NC(=O)[C@@H](CCC(N)=O)NC(=O)[C@@H](CC(C)C)NC(=O)[C@H](NC(=O)[C@@H](C)NC(=O)[C@@H](CCCCN)NC(=O)[C@@H](CCCCN)NC(=O)[C@@H](CCCCN)NC(=O)[C@@H](CCCCN)NC(=O)[C@@H](CCCCN)NC(=O)[C@H](N)C(C)C)C(C)C)C(=O)N[C@H](CC(C)C)C(=O)N[C@H](CCCCN)C(=O)N[C@H](Cc1ccccc1)C(N)=O", "note": "[D-1a-N10] (H-[dV][dK][dK][dK][dK][dK][dA][dV][dL][dQ][dL][dI][dL][dK][dF]-NH2; N-terminus assumed)", "values": [
      {"measurement": "Fold improvement (lowering) of MIC compared to parent 1a-N10, E. coli", "setting": "[1]", "value": 2, "unit": "fold"},
      {"measurement": "Fold lowering of MIC compared to parent 1a-N10, E. faecalis", "setting": "[2]", "value": 4, "unit": "fold"},
      {"measurement": "Fold improvement (lowering) of MIC compared to parent 1a-N10, K. pneumoniae", "setting": "[3]", "value": 2, "unit": "fold"},
      {"measurement": "Fold lowering of MIC compared to parent 1a-N10, S. aureus", "setting": "[4]", "value": 8, "unit": "fold"},
      {"measurement": "Frequency of resistance (FoR) (in words)", "setting": "[5]", "value": "eliminated mutagenicity"},
      {"measurement": "Membrane morphology of cells (in words)", "setting": "[6]", "value": "indications of changes in membrane morphology"}
    ]},
    {"compound": "VKKKKKAVLQLILKF-NH2 [1a-N10]", "values": [
      {"measurement": "Solubility (in words)", "setting": "[7]", "value": "soluble in PBS alone"},
      {"measurement": "Time after which CFU/ml was below the detection limit", "setting": "[8]", "value": 0.5, "unit": "h"},
      {"measurement": "Frequency of resistance (FoR) (in words)", "setting": "[5]", "value": "low resistance frequencies"},
      {"measurement": "Membrane morphology of cells (in words)", "setting": "[6]", "value": "no explicit membrane defects"}
    ]}
  ]
}
